Converted amounts (≈) assume the structure as drawn. Where two headings read alike, the source gives them in different places.
What was measured:
S. aureus GC 1079 = test: MIC, broth microdilution; settings: Staphylococcus aureus
S. agalactiae GC 4564 = test: MIC, broth microdilution; settings: Streptococcus agalactiae
E. faecalis GC 4555 = test: MIC, broth microdilution; settings: Enterococcus faecalis
E. coli GC 1073 = test: MIC, broth microdilution; settings: Escherichia coli
E. faecalis GC 2242 = test: MIC, broth microdilution; settings: Enterococcus faecalis
S. pneumoniae+ GC 4465 = test: MIC, broth microdilution; settings: Streptococcus pneumoniae
S. typhimurium GC 2172 = test: MIC, broth microdilution; settings: Salmonella enterica, TYPHIMURIUM
E. coli GC 6465 = test: MIC, broth microdilution; settings: Escherichia coli
c. albicans GC 3066 = test: MIC, broth microdilution
Staph. aureus Smith = test: In vivo activity (oral, iv; ED50) against Staph. aureus Smith in mice
E. coli GC 4559 = test: MIC, broth microdilution; settings: Escherichia coli
S. epidermidis GC 4935 = test: MIC, broth microdilution; settings: Staphylococcus epidermidis
S. aureus GC 4536 = test: MIC, broth microdilution; settings: Staphylococcus aureus
S. aureus GC 1131 = test: MIC, broth microdilution; settings: Staphylococcus aureus
E. faecalis GC 2267 = test: MIC, broth microdilution; settings: Enterococcus faecalis
E. coli GC 4560 = test: MIC, broth microdilution; settings: Escherichia coli
S. aureus GC 6467 = test: MIC, broth microdilution; settings: Staphylococcus aureus
E. coli GC 2235 = test: MIC, broth microdilution; settings: Escherichia coli
S. pneumoniae* GC 4465 = test: MIC, broth microdilution; settings: Streptococcus pneumoniae
E. coli GC 2272 = test: MIC, broth microdilution; settings: Escherichia coli
[1] = read-out: MINIMAL INHIBITORY CONCENTRATION MIC, pre-incubated in Human Serum
[2] = read-out: MINIMAL INHIBITORY CONCENTRATION MIC, pre-incubated in Mouse Serum
[3] = read-out: MINIMAL INHIBITORY CONCENTRATION MIC, pre-incubated in Water

- MIC (S. aureus GC 1079; GC1079, read-out: MINIMAL INHIBITORY CONCENTRATION MIC, pre-incubated in Human Serum): 0.12 µg/mL (≈ 0.164 µM)
- MIC (S. aureus GC 1079; GC1079, read-out: MINIMAL INHIBITORY CONCENTRATION MIC, pre-incubated in Mouse Serum): 0.5 µg/mL (≈ 0.685 µM)
- MIC (S. aureus GC 1079; GC1079, read-out: MINIMAL INHIBITORY CONCENTRATION MIC, pre-incubated in Water): 1 µg/mL (≈ 1.37 µM)
- MIC (S. agalactiae GC 4564; GC4564, read-out: MINIMAL INHIBITORY CONCENTRATION MIC, pre-incubated in Human Serum): 0.5 µg/mL (≈ 0.685 µM)
- MIC (S. agalactiae GC 4564; GC4564, read-out: MINIMAL INHIBITORY CONCENTRATION MIC, pre-incubated in Mouse Serum): 0.25 µg/mL (≈ 0.343 µM)
- MIC (S. agalactiae GC 4564; GC4564, read-out: MINIMAL INHIBITORY CONCENTRATION MIC, pre-incubated in Water): 0.5 µg/mL (≈ 0.685 µM)
- MIC (E. faecalis GC 4555; GC4555, read-out: MINIMAL INHIBITORY CONCENTRATION MIC, pre-incubated in Human Serum): 2 µg/mL (≈ 2.74 µM)
- MIC (E. faecalis GC 4555; GC4555, read-out: MINIMAL INHIBITORY CONCENTRATION MIC, pre-incubated in Mouse Serum): 1 µg/mL (≈ 1.37 µM)
- MIC (E. faecalis GC 4555; GC4555, read-out: MINIMAL INHIBITORY CONCENTRATION MIC, pre-incubated in Water): 2 µg/mL (≈ 2.74 µM)
- MIC (E. coli GC 1073; GC1073, read-out: MINIMAL INHIBITORY CONCENTRATION MIC, pre-incubated in Human Serum): 8 µg/mL (≈ 11 µM)
- MIC (E. coli GC 1073; GC1073, read-out: MINIMAL INHIBITORY CONCENTRATION MIC, pre-incubated in Mouse Serum): 1 µg/mL (≈ 1.37 µM)
- MIC (E. coli GC 1073; GC1073, read-out: MINIMAL INHIBITORY CONCENTRATION MIC, pre-incubated in Water): 64 µg/mL (≈ 87.7 µM)
- MIC (E. faecalis GC 2242; GC2242, read-out: MINIMAL INHIBITORY CONCENTRATION MIC, pre-incubated in Human Serum): 1 µg/mL (≈ 1.37 µM)
- MIC (E. faecalis GC 2242; GC2242, read-out: MINIMAL INHIBITORY CONCENTRATION MIC, pre-incubated in Mouse Serum): 1 µg/mL (≈ 1.37 µM)
- MIC (E. faecalis GC 2242; GC2242, read-out: MINIMAL INHIBITORY CONCENTRATION MIC, pre-incubated in Water): 2 µg/mL (≈ 2.74 µM)
- MIC (S. pneumoniae+ GC 4465; [1]): 2 µg/mL (≈ 2.74 µM)
- MIC (S. pneumoniae+ GC 4465; [2]): 2 µg/mL (≈ 2.74 µM)
- MIC (S. pneumoniae+ GC 4465; [3]): 4 µg/mL (≈ 5.48 µM)
- MIC (S. typhimurium GC 2172; [1]): 32 µg/mL (≈ 43.8 µM)
- MIC (S. typhimurium GC 2172; [2]): 2 µg/mL (≈ 2.74 µM)
- MIC (S. typhimurium GC 2172; [3]): > 64 µg/mL
- MIC (E. coli GC 6465; GC6465, read-out: MINIMAL INHIBITORY CONCENTRATION MIC, pre-incubated in Human Serum): 16 µg/mL (≈ 21.9 µM)
- MIC (E. coli GC 6465; GC6465, read-out: MINIMAL INHIBITORY CONCENTRATION MIC, pre-incubated in Mouse Serum): 2 µg/mL (≈ 2.74 µM)
- MIC (E. coli GC 6465; GC6465, read-out: MINIMAL INHIBITORY CONCENTRATION MIC, pre-incubated in Water): > 64 µg/mL
- MIC (c. albicans GC 3066; Candida albicans, GC3066, read-out: MINIMAL INHIBITORY CONCENTRATION MIC): > 64 µg/mL
- MINIMAL INHIBITORY CONCENTRATION MIC (c. albicans GC 3066; pre-incubated in Human Serum): >64 UG/ML
- MINIMAL INHIBITORY CONCENTRATION MIC (c. albicans GC 3066; pre-incubated in Mouse Serum): >64 UG/ML
- MIC (E. coli GC 4559; GC4559, read-out: MINIMAL INHIBITORY CONCENTRATION MIC, pre-incubated in Human Serum): 8 µg/mL (≈ 11 µM)
- MIC (E. coli GC 4559; GC4559, read-out: MINIMAL INHIBITORY CONCENTRATION MIC, pre-incubated in Mouse Serum): 1 µg/mL (≈ 1.37 µM)
- MIC (E. coli GC 4559; GC4559, read-out: MINIMAL INHIBITORY CONCENTRATION MIC, pre-incubated in Water): 64 µg/mL (≈ 87.7 µM)
- MIC (S. epidermidis GC 4935; GC4935, read-out: MINIMAL INHIBITORY CONCENTRATION MIC, pre-incubated in Human Serum): 1 µg/mL (≈ 1.37 µM)
- MIC (S. epidermidis GC 4935; GC4935, read-out: MINIMAL INHIBITORY CONCENTRATION MIC, pre-incubated in Mouse Serum): 1 µg/mL (≈ 1.37 µM)
- MIC (S. epidermidis GC 4935; GC4935, read-out: MINIMAL INHIBITORY CONCENTRATION MIC, pre-incubated in Water): 2 µg/mL (≈ 2.74 µM)
- MIC (S. aureus GC 4536; GC4536, read-out: MINIMAL INHIBITORY CONCENTRATION MIC, pre-incubated in Human Serum): 0.5 µg/mL (≈ 0.685 µM)
- MIC (S. aureus GC 4536; GC4536, read-out: MINIMAL INHIBITORY CONCENTRATION MIC, pre-incubated in Mouse Serum): 0.5 µg/mL (≈ 0.685 µM)
- MIC (S. aureus GC 4536; GC4536, read-out: MINIMAL INHIBITORY CONCENTRATION MIC, pre-incubated in Water): 1 µg/mL (≈ 1.37 µM)
- MIC (S. aureus GC 1131; GC1131, read-out: MINIMAL INHIBITORY CONCENTRATION MIC, pre-incubated in Human Serum): 0.5 µg/mL (≈ 0.685 µM)
- MIC (S. aureus GC 1131; GC1131, read-out: MINIMAL INHIBITORY CONCENTRATION MIC, pre-incubated in Mouse Serum): 0.5 µg/mL (≈ 0.685 µM)
- MIC (S. aureus GC 1131; GC1131, read-out: MINIMAL INHIBITORY CONCENTRATION MIC, pre-incubated in Water): 1 µg/mL (≈ 1.37 µM)
- MIC (E. faecalis GC 2267; GC2267, read-out: MINIMAL INHIBITORY CONCENTRATION MIC, pre-incubated in Human Serum): 1 µg/mL (≈ 1.37 µM)
- MIC (E. faecalis GC 2267; GC2267, read-out: MINIMAL INHIBITORY CONCENTRATION MIC, pre-incubated in Mouse Serum): 0.5 µg/mL (≈ 0.685 µM)
- MIC (E. faecalis GC 2267; GC2267, read-out: MINIMAL INHIBITORY CONCENTRATION MIC, pre-incubated in Water): 2 µg/mL (≈ 2.74 µM)
- MIC (E. coli GC 4560; GC4560, read-out: MINIMAL INHIBITORY CONCENTRATION MIC, pre-incubated in Human Serum): 0.5 µg/mL (≈ 0.685 µM)
- MIC (E. coli GC 4560; GC4560, read-out: MINIMAL INHIBITORY CONCENTRATION MIC, pre-incubated in Mouse Serum): 0.25 µg/mL (≈ 0.343 µM)
- MIC (E. coli GC 4560; GC4560, read-out: MINIMAL INHIBITORY CONCENTRATION MIC, pre-incubated in Water): 2 µg/mL (≈ 2.74 µM)
- MIC (S. aureus GC 6467; GC6467, read-out: MINIMAL INHIBITORY CONCENTRATION MIC, pre-incubated in Human Serum): 1 µg/mL (≈ 1.37 µM)
- MIC (S. aureus GC 6467; GC6467, read-out: MINIMAL INHIBITORY CONCENTRATION MIC, pre-incubated in Mouse Serum): 1 µg/mL (≈ 1.37 µM)
- MIC (S. aureus GC 6467; GC6467, read-out: MINIMAL INHIBITORY CONCENTRATION MIC, pre-incubated in Water): 2 µg/mL (≈ 2.74 µM)
- MIC (E. coli GC 2235; GC2235, read-out: MINIMAL INHIBITORY CONCENTRATION MIC, pre-incubated in Human Serum): 4 µg/mL (≈ 5.48 µM)
- MIC (E. coli GC 2235; GC2235, read-out: MINIMAL INHIBITORY CONCENTRATION MIC, pre-incubated in Mouse Serum): 0.5 µg/mL (≈ 0.685 µM)
- MIC (E. coli GC 2235; GC2235, read-out: MINIMAL INHIBITORY CONCENTRATION MIC, pre-incubated in Water): 16 µg/mL (≈ 21.9 µM)
- MIC (S. pneumoniae* GC 4465; [1]): 0.25 µg/mL (≈ 0.343 µM)
- MIC (S. pneumoniae* GC 4465; [2]): 0.25 µg/mL (≈ 0.343 µM)
- MIC (S. pneumoniae* GC 4465; [3]): 0.5 µg/mL (≈ 0.685 µM)
- MIC (E. coli GC 2272; GC2272, read-out: MINIMAL INHIBITORY CONCENTRATION MIC, pre-incubated in Human Serum): 8 µg/mL (≈ 11 µM)
- MIC (E. coli GC 2272; GC2272, read-out: MINIMAL INHIBITORY CONCENTRATION MIC, pre-incubated in Mouse Serum): 1 µg/mL (≈ 1.37 µM)
- MIC (E. coli GC 2272; GC2272, read-out: MINIMAL INHIBITORY CONCENTRATION MIC, pre-incubated in Water): 16 µg/mL (≈ 21.9 µM)
SMILES: CC(C)C(=O)OCOC(=O)N(CC(=O)Nc1cc(N(C)C)c2c(c1O)C(=O)C1=C(O)[C@]3(O)C(=O)C(C(N)=O)=C(O)[C@@H](N(C)C)[C@@H]3C[C@@H]1C2)C(C)(C)C [Example 45, ({[(2-{[(5aR,6aS,7S,10aS)-9-(aminocarbonyl)-4,7-bis(dimethylamino)-1,8,10a,11-tetrahydroxy-10,12-dioxo-5,5a,6,6a,7,10,10a,12-octahydrotetracen-2-yl]amino}-2-oxoethyl)(tert-butyl)amino]carbonyl}oxy)methyl 2-methylpropanoate]
- ED50 (Staph. aureus Smith; Staphylococcus aureus, in Mus musculus, iv, read-out: ED50 SIV (Staph aureus Smith)): 0.66 mg/kg
- ED50 (Staph. aureus Smith; Staphylococcus aureus, in Mus musculus, po, read-out: ED50 SOD (Staph aureus Smith)): 5.9 mg/kg
- ED50 (Staph. aureus Smith; Staphylococcus aureus, in Mus musculus, po, read-out: ED50 Staph Smith SOD): 5.9 mg/kg
- ED50 (Staph. aureus Smith; iv, read-out: ED50 Staph Smith SIV): 0.66 mg/kg

Source: patent US20070049564A1 (Wyeth, priority 2005, published 2007)
